Publication PMC2667896 (Archives of Drug Information, 2009)
Read-outs that look alike come from different tables or passages of the source.

Columns and labels:
[1] = Steady-state plasma pharmacokinetics in healthy volunteers; format: in vivo, human
[2] = tested on: CYP3A4; conditions: cited from earlier work
[3] = cited from earlier work
[4] = Day 11, Arm 1, participant 2, saquinavir/ritonavir 1,000/100 mg orally twice daily
[5] = Day 11, Arm 1, participant 4, saquinavir/ritonavir 1,000/100 mg orally twice daily
[6] = Day 12, Arm 1, participant 2, saquinavir/ritonavir 1,000/100 mg orally twice daily
[7] = Day 12, Arm 1, participant 4, saquinavir/ritonavir 1,000/100 mg orally twice daily
[8] = Day 13, Arm 1, participant 2, saquinavir/ritonavir 1,000/100 mg orally twice daily
[9] = Day 13, Arm 1, participant 4, saquinavir/ritonavir 1,000/100 mg orally twice daily

O=C1Nc2ccc(Cl)cc2[C@@](C#CC2CC2)(C(F)(F)F)O1 [Efavirenz]
Individual trough plasma concentration ([1]; Day 11, Arm 2, participant 1, efavirenz 600 mg orally once daily): 1,080 ng/mL | Individual trough plasma concentration ([1]; Day 12, Arm 2, participant 1, efavirenz 600 mg orally once daily): 1,050 ng/mL | Individual trough plasma concentration ([1]; Day 13, Arm 2, participant 1, efavirenz 600 mg orally once daily): 1,060 ng/mL | AUC ([1]; human, plasma, po, 600 mg): 42500 ng·h/mL | Cmax ([1]; human, plasma, po, 600 mg): 4780 ng/mL | Tmax ([1]; human, plasma, po, 600 mg): 2 h | half-life ([1]; human, plasma, po, 600 mg): 1590 min | Effect on CYP3A4 ([2]; efavirenz): potent inducer | half-life [3]: 40 to 55 h

CC(C)c1nc(CN(C)C(=O)N[C@H](C(=O)N[C@@H](Cc2ccccc2)C[C@H](O)[C@H](Cc2ccccc2)NC(=O)OCc2cncs2)C(C)C)cs1 [Ritonavir]
Individual trough plasma concentration [1, 4]: 57.8 ng/mL | Individual trough plasma concentration [1, 5]: 137 ng/mL | Individual trough plasma concentration [1, 6]: 83.8 ng/mL | Individual trough plasma concentration [1, 7]: 163 ng/mL | Individual trough plasma concentration [1, 8]: 86.2 ng/mL | Individual trough plasma concentration [1, 9]: 251 ng/mL | half-life ([1]; human, plasma, po): 212 min | Tmax ([1]; steady state (day 14), Arm 1, participant 2, saquinavir/ritonavir 1,000/100 mg orally twice daily): 1.00 h

CC(C)(C)NC(=O)[C@@H]1C[C@@H]2CCCC[C@@H]2CN1C[C@@H](O)[C@H](Cc1ccccc1)NC(=O)[C@H](CC(N)=O)NC(=O)c1ccc2ccccc2n1 [Saquinavir]
Individual trough plasma concentration [1, 4]: 337 ng/mL | Individual trough plasma concentration [1, 5]: 602 ng/mL | Individual trough plasma concentration [1, 6]: 640 ng/mL | Individual trough plasma concentration [1, 7]: 700 ng/mL | Individual trough plasma concentration [1, 8]: 867 ng/mL | Individual trough plasma concentration [1, 9]: 1,220 ng/mL | Tmax ([1]; human, plasma, po): 2 h | half-life ([1]; human, plasma, po): 359 min | Effect on CYP3A4 ([2]; saquinavir): weak CYP3A4 inhibitor
